Like-named read-outs stand apart in the source and are kept apart here.
Experiment: Food effect cross-over study, 200 mg (25 mg tablets), healthy volunteers: plasma pharmacokinetics
Type: in vivo, human
Conditions: for Plasma concentration, Geometric Mean / Plasma concentration, Mean / Plasma concentration, Median: Predose; for concentration at 1 h / concentration at 2 h / concentration at 3 h / concentration at 4 h / concentration at 5 h / concentration at 6 h / concentration at 9 h / concentration at 12 h / concentration at 18 h / concentration at 24 h / concentration at 36 h: human, plasma, oral; for concentration at 1 h: 1 hour postdose; for concentration at 2 h: 2 hours postdose; for concentration at 3 h: 3 hours postdose; for concentration at 4 h: 4 hours postdose; for concentration at 5 h: 5 hours postdose; for concentration at 6 h: 6 hours postdose; for concentration at 9 h: 9 hours postdose; for concentration at 12 h: 12 hours postdose; for concentration at 18 h: 18 hours postdose; for concentration at 24 h: 24 hours postdose; for concentration at 36 h: 36 hours postdose
Excerpt: This example describes a clinical study for establishing, in healthy volunteers, the effect of a high fat, high caloric meal on the PK profile of Compound I, as compared to administration of the drug in the fasted state. The study also was intended to determine the safety and tolerability after a single oral dose of Compound I in the fed and fasted state in healthy volunteers. The measurements of PK, PD, and other clinical parameters were done as described in Example 1 above.
This study was an open-label, randomized, two-period cross-over study in healthy volunteers aged 18-55 years. Subjects were screened up to 28 days before the first treatment period. Subjects were admitted to the clinical site on Day −1 (the day before dosing) of Period 1. Approximately half of the subjects randomly received a single dose of Compound I on Day 1 of the first treatment period after the ingestion of a high fat, high caloric breakfast, and the remainder were closed in the fasted state. Any subject with a preclose resting HR≥95 beats per minute (bpm) was considered ineligible and was not treated. Any subjects with an acute gastrointestinal disorder which could impact drug/food absorption (e.g., vomiting, diarrhea) were rescheduled. Subjects were confined to the clinic until Day 4, and discharged after the 72-hour postclose PK and laboratory samples and vital signs were obtained. After a washout between dosing from 7 to 10 days (or, after consultation with the Investigator, up to 21 days after initial dosing if the subject was unable to attend within the 7 to 10-day window), the subject was admitted for Period 2. The sequence of fed/fasted versus fasted/fed periods was randomized. Subjects returned after the second treatment period for a safety follow-up visit on Day 7 (±1 day).
In both treatment periods, Compound I was administered with 240 mL of water. In the fasted state, the subjects fasted for 10 hours before and for 4 hours after the administration of Compound I. Water could have been ingested up to 1 hour before and after 1 hour post dosing. In the fed state, the subjects fasted for 10 hours before and for 4 hours after the ingestion of the meal, but could have ingested water up to 1 hour before and 1 hour after dosing. In the fed state, the subjects started ingesting the high fat, high caloric meal within 30 minutes prior to Compound I administration and finished the meal within 30 minutes. The meal contained approximately 800 to 1000 calories with about 50% of the calories from fat. The meal consisted of approximately 150 calories from protein, 250 calories from carbohydrate, and 500-600 calories from fat. An example of the meal was a breakfast consisting of two eggs fried in butter, two strips of bacon, two slices of buttered toast, 4 ounces of hash brown potatoes, and 8 ounces of whole milk.
Each subject received two oral doses of 200 mg of Compound I formulated as 25 mg tablets (8 tablets) in a randomized, cross-over fashion, once in the fasted state and the other time after the ingestion of a high fat, high caloric breakfast. There was a washout of between 7 and 21 days between the administrations of the two closes. The Compound I drug substance was a crystalline, free-base, synthetic molecule with a molecular weight of 435.4.
Plasma drug concentrations were measured as described in Example 1 above. Blood samples to measure Compound I plasma concentration were collected at various time points, including on Day 1 preclose (1 hour prior to dosing) and at 1 (±5 min), 2 (±5 min), 3 (±5 min), 4 (+10 min), 5 (+10 min), 6 (+10 min), 9 (+20 min), 12 (+20 min), 18 (+30 min), 24 (+30 min), 36 (+30 min), 48 (+30 min), and 72 (+30 min) hours postclose on both treatment periods.
To assess the effect of food on the PK of Compound I, the two one-sided t-test procedure was used to construct 90% CI around the geometric mean ratios (fed/fasted) of plasma AUCinf, AUClast, and Cmax. […]

[1] = Fasted, read-out: Plasma concentration, Geometric Mean
[2] = Fasted, read-out: Plasma concentration, Mean
[3] = Fasted, read-out: Plasma concentration, Median
[4] = Fed, read-out: Plasma concentration, Geometric Mean
[5] = Fed, read-out: Plasma concentration, Mean
[6] = Fed, read-out: Plasma concentration, Median

Structure (SMILES): Cn1cc(S(=O)(=O)[C@@](C)(F)C2CCN(C(=O)Nc3ccon3)CC2)c(C(F)F)n1 [Compound I, (R)-4-(1-((3-(difluoromethyl)-1-methyl-1H-pyrazol-4-yl)sulfonyl)-1-fluoroethyl)-N-(isoxazol-3-yl)piperidine-1-carboxamide]
- exposure (Cmax) higher in the fed state versus the fasted state: ~60%
- AUCinf, Geometric Mean Ratio - Fed/Fasted (N = 11): 154.28 % of Reference
- AUClast, Geometric Mean Ratio - Fed/Fasted (N = 11): 154.02 % of Reference
- Cmax, Geometric Mean Ratio - Fed/Fasted (N = 11): 158.11 % of Reference
- Plasma concentration, Geometric Mean (Fasted): 0.000 ng/mL
- Plasma concentration, Mean (Fasted): 0.000 ng/mL
- Plasma concentration, Median (Fasted): 0.000 ng/mL
- Plasma concentration, Geometric Mean (Fed): 0.000 ng/mL
- Plasma concentration, Mean (Fed): 0.092 ng/mL
- Plasma concentration, Median (Fed): 0.000 ng/mL
- Tmax, Median (range) (fasted state): 5 h
- Tmax, Median (range) (fed state): 5.5 h
- concentration at 1 h [1]: 1180 ng/mL
- concentration at 1 h [2]: 1360 ng/mL
- concentration at 1 h [3]: 1600 ng/mL
- concentration at 1 h [4]: 916 ng/mL
- concentration at 1 h [5]: 1320 ng/mL
- concentration at 1 h [6]: 828 ng/mL
- concentration at 2 h [1]: 1780 ng/mL
- concentration at 2 h [2]: 1830 ng/mL
- concentration at 2 h [3]: 1820 ng/mL
- concentration at 2 h [4]: 1470 ng/mL
- concentration at 2 h [5]: 1920 ng/mL
- concentration at 2 h [6]: 1160 ng/mL
- concentration at 3 h [1]: 2090 ng/mL
- concentration at 3 h [2]: 2120 ng/mL
- concentration at 3 h [3]: 2180 ng/mL
- concentration at 3 h [4]: 2000 ng/mL
- concentration at 3 h [5]: 2340 ng/mL
- concentration at 3 h [6]: 2340 ng/mL
- concentration at 4 h [1]: 2190 ng/mL
- concentration at 4 h [2]: 2220 ng/mL
- concentration at 4 h [3]: 2280 ng/mL
- concentration at 4 h [4]: 2610 ng/mL
- concentration at 4 h [5]: 2810 ng/mL
- concentration at 4 h [6]: 3030 ng/mL
- concentration at 5 h [1]: 2270 ng/mL
- concentration at 5 h [2]: 2310 ng/mL
- concentration at 5 h [3]: 2400 ng/mL
- concentration at 5 h [4]: 3040 ng/mL
- concentration at 5 h [5]: 3150 ng/mL
- concentration at 5 h [6]: 3340 ng/mL
- concentration at 6 h [1]: 2170 ng/mL
- concentration at 6 h [2]: 2220 ng/mL
- concentration at 6 h [3]: 2320 ng/mL
- concentration at 6 h [4]: 3140 ng/mL
- concentration at 6 h [5]: 3200 ng/mL
- concentration at 6 h [6]: 3320 ng/mL
- concentration at 9 h [1]: 1970 ng/mL
- concentration at 9 h [2]: 2000 ng/mL
- concentration at 9 h [3]: 2040 ng/mL
- concentration at 9 h [4]: 3050 ng/mL
- concentration at 9 h [5]: 3080 ng/mL
- concentration at 9 h [6]: 3220 ng/mL
- concentration at 12 h [1]: 1720 ng/mL
- concentration at 12 h [2]: 1740 ng/mL
- concentration at 12 h [3]: 1800 ng/mL
- concentration at 12 h [4]: 2780 ng/mL
- concentration at 12 h [5]: 2840 ng/mL
- concentration at 12 h [6]: 2720 ng/mL
- concentration at 18 h [1]: 1290 ng/mL
- concentration at 18 h [2]: 1320 ng/mL
- concentration at 18 h [3]: 1360 ng/mL
- concentration at 18 h [4]: 2030 ng/mL
- concentration at 18 h [5]: 2080 ng/mL
- concentration at 18 h [6]: 2060 ng/mL
- concentration at 24 h [1]: 1070 ng/mL
- concentration at 24 h [2]: 1100 ng/mL
- concentration at 24 h [3]: 1170 ng/mL
- concentration at 24 h [4]: 1660 ng/mL
- concentration at 24 h [5]: 1720 ng/mL
- concentration at 24 h [6]: 1670 ng/mL
- concentration at 36 h [1]: 546 ng/mL
- concentration at 36 h [2]: 578 ng/mL
- concentration at 36 h [3]: 596 ng/mL
